Reference: the PolyMetriX glass transition set
± gives the standard deviation of the reports.

Row | Compound | glass transition temperature
1 | *Oc1ccc(/C=C2\CC/C(=C\c3ccc(OC(=O)c4ccc(/N=C/c5ccc(/C=N/c6ccc(C(*)=O)cc6)cc5)cc4)cc3)C2=O)cc1 (repeat unit) | 205.00 °C
2 | *CC(*)(CC(=O)OCCCCCCCC)C(=O)OCCCCCCCC (repeat unit) | -19.00 °C
3 | *CC(*)c1cc(Cl)ccc1Cl (repeat unit) | 108.00 °C
4 | *CC(C)O* (repeat unit) [Poly(propylene glycol)] | -69.18 ± 2.6 °C
5 | *CC(*)C(=O)c1ccccc1 (repeat unit) [Poly(phenyl vinyl ketone)] | 60.80 ± 17 °C
6 | *CC(*)(F)C(=O)OCC(F)(F)C(F)F (repeat unit) | 90.50 °C
7 | *Oc1ccc(SC(=O)Oc2ccc(C(C)(C)c3ccc(OC(=O)Sc4ccc(*)cc4)cc3)cc2)cc1 (repeat unit) | 145.00 °C
8 | *CC(*)OC(C)=O (repeat unit) [poly(vinyl acetate)] | 40.92 ± 13 °C
9 | *CCN(CCOC(=O)NCC1(C)CC(NC(=O)O*)CC(C)(C)C1)c1ccc(/N=N/c2ccc(C#N)cc2)cc1 (repeat unit) | 136.00 °C
10 | *CC(O)COc1ccc(C(C)(C)c2ccc(OCC(O)CN3CCN(*)CC3)cc2)cc1 (repeat unit) | 100.00 °C
11 | *c1ccc(Oc2ccc(-c3c(-c4ccccc4)c(-c4ccc(-c5nc6ccccc6c(*)c5-c5ccccc5)cc4)nc4ccccc34)cc2)cc1 (repeat unit) | 273.00 °C
12 | *c1ccc(-c2cc(-c3ccc(OCCCCCC)cc3)cc(-c3ccc(-c4ccc5c(c4)C(CCCCCC)(CCCCCC)c4cc(*)ccc4-5)cc3)c2-c2ccc(OCCCCCC)cc2)cc1 (repeat unit) | 118.00 °C
13 | *CCCCCCCOc1ccc(CCc2ccc(O*)cc2C)cc1 (repeat unit) | 6.50 °C
14 | *Oc1ccc(C(c2ccccc2)c2ccc(OC(*)=S)cc2)cc1 (repeat unit) | 179.00 °C
15 | *CCOC(=O)Nc1ccc(C)c(NC(=O)OCCOc2ccc(C3(c4ccc(O*)cc4)c4ccccc4-c4ccccc43)cc2)c1 (repeat unit) | 175.00 °C
16 | *CCOc1ccc(S(=O)(=O)c2ccc(OCCOP(=O)(O*)Oc3ccc(Br)cc3)cc2)cc1 (repeat unit) | 59.00 °C

Row | Compound | glass transition temperature
17 | *CCCCCC(*)CCC (repeat unit) | -68.00 °C
18 | *CCCCCCCCCCNC(=O)CCCCCCCCC(=O)N* (repeat unit) | 60.00 °C
19 | *CCCOc1cccc(C(=O)OC(=O)c2cccc(O*)c2)c1 (repeat unit) | 53.00 °C
20 | *CCCCCCCCOc1ccc(/C=C2\CCC/C(=C\c3ccc(O*)c(OC)c3)C2=O)cc1OC (repeat unit) | 72.00 °C
21 | *CC(*)Cc1cccc(C)c1 (repeat unit) | 40.00 °C
22 | *CCCCCCCCCCNC(=O)CCP(C)(=O)CCC(=O)N* (repeat unit) | 45.50 °C
23 | *Oc1ccc(OC(=O)c2ccc(C(C)(C)c3ccc(C(*)=O)cc3)cc2)cc1 (repeat unit) | 195.00 °C
24 | *CC(*)C(=O)OCCCCCCOc1ccc(/C=N/c2ccc(OCCCCC)cc2)c(O)c1 (repeat unit) | 41.00 °C
25 | *CCCCCCOP(=O)(/N=N/c1ccc(CCOC(=O)c2cc(C(=O)OCCc3ccc(/N=N/P(=O)(O*)OC)cc3)cc(C(C)(C)C)c2)cc1)OC (repeat unit) | 47.00 °C
26 | *c1ccc(-c2ccc(-c3nc4ccc(Oc5ccc6nc(*)c(-c7ccccc7)c(-c7ccccc7)c6c5)cc4c(-c4ccccc4)c3-c3ccccc3)cc2)cc1 (repeat unit) | 351.00 °C
27 | *CC(*)(C)C(=O)OCC1CO1 (repeat unit) | 68.50 °C
28 | *c1cc(-c2ccc(C(=C3C=C(C(C)(C)C)C(=O)C(C(C)(C)C)=C3)c3cc(C(C)(C)C)c(O)c(C(C)(C)C)c3)cc2)c(*)s1 (repeat unit) | -12.60 °C
29 | *CC(*)c1ccccc1C(=O)OCCC (repeat unit) | 108.00 °C
30 | *Oc1cc(CCCCCC)cc(OC(=O)c2cccc(C(*)=O)c2)c1 (repeat unit) | 67.50 °C
31 | *CC(OC=O)C(COC(=O)O*)OC=O (repeat unit) | 54.30 °C

Continued, values first:

Row | glass transition temperature | Compound
32 | 235.00 °C | *c1ccc(Oc2ccc(S(=O)(=O)c3ccc(Oc4ccc(-c5cc(*)n(-c6ccccc6)n5)cc4)cc3)cc2)cc1 (repeat unit)
33 | 246.00 °C | *C(=O)c1ccc2c(c1)C(=O)N(c1ccc(OCCOc3ccc(N4C(=O)c5ccc(*)cc5C4=O)cc3)cc1)C2=O (repeat unit)
34 | 219.00 °C | *c1ccc(Oc2ccc(C(=O)c3cccc(C(=O)c4ccc(Oc5ccc(-c6nc7ccccc7n6-c6ccc(-n7c(*)nc8ccccc87)cc6)cc5)cc4)c3)cc2)cc1 (repeat unit)
35 | 211.00 °C | *C(=O)c1ccc2c(c1)C(=O)N(c1cccc(Oc3cccc(Oc4cccc(N5C(=O)c6ccc(*)cc6C5=O)c4)c3)c1)C2=O (repeat unit)
36 | 224.50 °C | *c1cccc(C(c2cccc(N3C(=O)c4ccc(Oc5ccc6c(c5)C(=O)N(*)C6=O)cc4C3=O)c2)(C(F)(F)F)C(F)(F)F)c1 (repeat unit)
37 | 310.00 °C | *c1ccc(Oc2ccc(S(=O)(=O)c3ccc(Oc4ccc(-c5c6c(c(*)c7ccccc57)C(=O)N(c5ccccc5)C6=O)cc4)cc3)cc2)cc1 (repeat unit)
38 | 295.00 °C | *c1ccc(Oc2ccc(-c3nc4cc(Oc5ccc(NC(=O)c6cc(C(=O)Nc7ccc(Oc8ccc9nc(-c%10ccccc%10)c(*)nc9c8)cc7)cc(N7C(=O)c8c(Cl)c(Cl)c(Cl)c(Cl)c8C7=O)c6)cc5)ccc4nc3-c3ccccc3)cc2)cc1 (repeat unit)
39 | 296.00 °C | *C(=O)c1ccc2c(c1)C(=O)N(c1ccc(Oc3ccc(N4C(=O)c5ccc(*)cc5C4=O)cc3Br)c(Br)c1)C2=O (repeat unit)
40 | 265.00 °C | *c1ccc(Oc2ccc(C3(c4ccc(Oc5ccc(N6C(=O)c7ccc(Oc8c(C)cc(C(C)(C)c9cc(C)c(Oc%10ccc%11c(c%10)C(=O)N(*)C%11=O)c(C)c9)cc8C)cc7C6=O)cc5)cc4)CC4CCC3C4)cc2)cc1 (repeat unit)
41 | 298.00 °C | *C(=O)Nc1ccc(C2(c3ccc(NC(=O)c4ccc5c(c4)C(=O)N(c4ccc(Sc6ccc(Oc7ccc(Sc8ccc(N9C(=O)c%10ccc(*)cc%10C9=O)cc8)cc7)cc6)cc4)C5=O)cc3)c3ccccc3-c3ccccc32)cc1 (repeat unit)
42 | 308.03 °C | *C(=O)c1ccc2c(c1)C(=O)N(c1ccc(C(c3ccc(N4C(=O)c5ccc(*)cc5C4=O)cc3)(C(F)(F)F)C(F)(F)F)cc1)C2=O (repeat unit)
43 | 235.00 °C | *c1ccc(Oc2ccc(Oc3ccc(-c4cnc5ccc(-c6ccc7ncc(*)nc7c6)cc5n4)cc3)cc2)cc1 (repeat unit)
44 | 336.00 °C | *c1ccc(Cc2ccc(N3C(=O)c4ccc(S(=O)(=O)c5ccc6c(c5)C(=O)N(*)C6=O)cc4C3=O)c(C(C)(C)C)c2)cc1C(C)(C)C (repeat unit)
45 | 276.00 °C | *OC(=O)c1cccc(C(=O)Oc2ccc3c(c2)Oc2cc(*)ccc2C32OC(=O)c3ccccc32)c1 (repeat unit)
